{
  "source": "patent US20250171468A1",
  "about": "“PHENOXIDO COPPER COMPLEXES AND METHODS FOR USING THEM IN THE TREATMENT OF CANCER” (UNIVERSITY OF LOUISIANA LAFAYETTE, priority 2023, published 2025)",
  "key": {"[1]": {"test_system": "all tested cancer cell lines", "details": "cited from earlier work"}, "A2780 cells [2]": {"test_system": "A2780 cells", "experiment": "Cell death induction, Annexin V / propidium iodide flow cytometry", "type": "cell-based, human", "details": "A2780, 24 h; applied at concentration causing 50% decrease in proliferation", "experimental": "The induction of cell death in A2780 cancer cells was monitored by flow cytometry. Three types of cells were identified by incubation with Annexin V antibody and propidium iodide (PI). The normal cells were Annexin V and PI negative.\n(§1) Both assays were performed according to the manufacturers' protocols with one modification in caspase induction assay, which was the use of CellEvent™ Caspase-3/7 Green Detection Reagent only for detection of Caspase-3/7 activation. […] After the 24 h incubation period, cells were washed once with PBS (0.1 M, pH 7.4), detached by trypsinization (0.25% trypsin-EDTA (Gibco™), resuspended in 500 L of culture medium and divided into two separate samples. The first sample was used in the apoptosis assay and the second one was used to detect the activation of caspases 3/7 in A2780 cells. The samples were analyzed using the BD FACSVerse flow cytometer (Becton Dickinson, USA) in three separate experiments, while at least 10^4 events were recorded for each sample prepared in duplicates."}, "A2780 cells [3]": {"test_system": "A2780 cells", "experiment": "Cell cycle analysis by flow cytometry", "type": "cell-based, human", "details": "A2780, 24 h; 4 and 6 at 3 μM, 7 at 15 μM, cisplatin at 19 μM", "experimental": "Similar cellular effects were described for a number of copper(II) complexes previously for a number of copper(II) complexes involving various ligands [40-43.]\nThe A2780 cells (Sigma, 93112519-1VL) were cultivated according to the producer's instructions and seeded at the concentration of 10^4 cells/well in 96-wells. […] After 24 h, the cells were washed once with PBS (0.1 M, pH 7.4) and cell cycle analysis was performed according to the protocol based on BD Cycletest™ Plus DNA kit (Becton Dickinson, USA). Measurements were performed using BD FACSVerse flow cytometer (Becton Dickinson, USA) in three independent experiments, each done in duplicate, while at least 5×10^3 events were recorded for each sample."}, "A2780 cells [4]": {"test_system": "A2780 cells", "experiment": "Intracellular ROS/superoxide production", "type": "cell-based, human", "details": "A2780, 24 h", "experimental": "The effects of the tested compounds on the ROS production in A2780 cells and on the progression of the oxidative stress caused by the known pro-oxidant agent (pyocyanin) were observed by means of flow cytometry using a specific kit of intracellular ROS, and superoxide detection, respectively. […] Approximately the same pattern was identified also in case of superoxide production (FIG. 16).\nThe oxidative stress analysis was performed using ROS-ID® Total ROS/Superoxide detection kit (Enzo Life Sciences, US) according to the manufacturer protocol. The samples were analyzed in triplicates on multimode microplate reader Infinite PRO M200 (Tecan, Switzerland). The control samples contained 500 iM pyocyanin."}, "A2780 cells [5]": {"test_system": "A2780 cells", "experiment": "Autophagy induction, CYTO-ID kit flow cytometry", "type": "cell-based, human", "details": "A2780, 24 h; 4 and 6 at 3 μM, 7 at 15 μM, cisplatin at 19 μM", "experimental": "To further explore the mechanisms involved in the cellular death of A2780 cells induced by the complexes, the autophagy progression was monitored in the cells using a specific flow cytometry-based kit. The autophagy signaling caused by the incubation with the tested compounds was compared to the untreated control group of cells and positive control group, which included cells treated with the chloroquine/rapamycin (CQ/Rapamycin) mixture inducing strong autophagic response in cells. […] In fact, autophagy might have a dual role in cancer as it can help the cancer cells to overcome metabolic stress (hypoxia, lack of nutrients) and suppress tumor progression through degradation of oncogenic proteins. Many anticancer agents, including the copper(II) complexes, which mechanism of action includes different cellular processes, such as inhibition of mTORC1, proteasome inhibition, inhibition of histone deacetylases or topoisomerases, induce autophagy. On the other hand, the apoptosis is evidently a main route of cell death in the A2780 cells caused by complex 7.\nThe analyses were performed according to the manufacturer's protocol on A2780 cells pretreated for 24 h by the tested compounds. […] The samples were analyzed using the BD FACSVerse flow cytometer (Becton Dickinson, USA) in three separate experiments, while at least 10^4 events were recorded for each sample prepared in duplicates. […]"}, "A2780 cells [6]": {"test_system": "A2780 cells", "experiment": "Mitochondrial membrane potential analysis", "type": "cell-based, human", "details": "A2780, 24 h incubation, IC50 concentrations", "experimental": "In order to get more insight about the mechanisms involved in the induction of cell death in the A2780 cells treated with the complexes 4, 6, and 7, the detection of mitochondrial membrane potential in the cells was performed by means of flow cytometric analysis using a specific kit. […] Both these agents induced the apoptosis via the intrinsic route of apoptosis activation, characterized by the efflux of cytochrome c from the damaged mitochondria to the cytoplasm of the cells, followed by the formation of […] and activation of effector caspases 3/7 leading to the destruction of cell cytoskeleton and fragmentation of DNA. […] The major suspect in this case is the induction of cuproptosis, a relatively newly discovered mechanism of cell death caused by copper, which is characterized by the high intracellular levels of copper, low levels of apoptosis, yet substantial antiproliferative effects on the target cells. […]\nThe cells were washed with PBS, detached by trypsin treatment, isolated by centrifugation, and resuspended in 500 iL of culture medium. […] The samples were measured in triplicates, while at least 10^4 events were recorded using BD FACSVerse flow cytometer (Becton Dickinson, USA). […]"}, "[7]": {"test_system": "caspases 3/7 in A2780 cells", "experiment": "Activation of effector caspases 3/7, flow cytometry", "type": "cell-based, human", "details": "A2780, 24 h incubation, IC50 concentrations", "experimental": "To assess the participation of apoptosis on the cell death induced by the studied complexes, the activity of effector caspases 3/7 in A2780 cells incubated with the tested compounds was determined by flow cytometry. […] This unequivocally means that the cell death they induce proceeds via a mechanism independent from caspases.\nas §1"}},
  "data": [
    {"smiles": "On1ccccc1=S.On1ccccc1=S.[Cu]", "note": "[[Cu(Pyr)2]]", "values": [
      {"measurement": "IC50 compared with cisplatin", "setting": "[1]", "result": "less than that of cisplatin"}
    ]},
    {"smiles": "[Cu+2].[O-]c1cccc2cccnc12.[O-]c1cccc2cccnc12", "note": "[[Cu(8-HQ)2]]", "values": [
      {"measurement": "IC50 compared with cisplatin", "setting": "[1]", "result": "less than that of cisplatin"}
    ]},
    {"smiles": "CCN(CC)C(=S)[S-].CCN(CC)C(=S)[S-].[Cu+2]", "note": "[[Cu(DDC)2]]", "values": [
      {"measurement": "IC50 compared with cisplatin", "setting": "[1]", "result": "less than that of cisplatin"}
    ]},
    {"smiles": "[Cu+2].[O-]c1c(I)cc(Cl)c2cccnc12.[O-]c1c(I)cc(Cl)c2cccnc12", "note": "[[Cu(CQ)2]]", "values": [
      {"measurement": "IC50 compared with cisplatin", "setting": "[1]", "result": "less than that of cisplatin"}
    ]},
    {"smiles": "N.N.[Cl][Pt][Cl]", "note": "[Cisplatin, cisplatin, reference compound]", "values": [
      {"measurement": "induction of cell death (apoptosis and necrosis)", "setting": "A2780 cells [2]", "result": "most intensive induction of cell death processes"},
      {"measurement": "cell-cycle modification", "setting": "A2780 cells [3]", "result": "significant arrest of cells in S phase"},
      {"measurement": "promotion of oxidative stress (ROS production) by the compound itself", "setting": "A2780 cells [4]; no pyocyanin pretreatment", "result": "none of the tested complexes 4, 6, and 7 nor cisplatin showed any significant abilities to promote the oxidative stress by themselves"},
      {"measurement": "effect on oxidative stress caused by pyocyanin pretreatment", "setting": "A2780 cells [4]; pretreated with pyocyanin", "result": "only slight antioxidative effects"},
      {"measurement": "activation of autophagy", "setting": "A2780 cells [5]", "result": "significant activation of autophagy"},
      {"measurement": "mitochondrial membrane damage", "setting": "A2780 cells [6]", "result": "impairment of the mitochondrial membrane function/permeability"},
      {"measurement": "activation of effector caspases 3/7", "setting": "[7]", "result": "significant activation"}
    ]}
  ]
}
